# Source: publication PMC3758303 (PLoS ONE, 2013)
# Experiments:
# [1] = system: HCV-JFH-1 strain (genotype 2a) in HuH-7-derived RSc cells; assay: JFH-1 reporter assay system, RSc cells; format: cell-based, hepatitis C virus; details: RSc cells inoculated with JR/C5B/BX-2 supernatant, RL assay
# Experimental: HCV infection was performed as described previously. RSc and D7 cells were inoculated with supernatant from RSc cells replicating JR/C5B/BX-2 [29].
# Figure 2 Characterization of anti-HCV activities of N-89 and N-251. (A) Schematic gene organization of authentic HCV-RNA (HCV-O/RLGE). The positions of four adaptive mutations - Q1112R, P1115L, E1202G, and K1609E - are indicated by a black star. (B) N-89 and N-251 inhibited authentic HCV-RNA replication. The cells harboring HCV-O/RLGE RNA [19] were treated with N-89 (left panel) and N-251 (right panel) for 72 hrs, followed by real-time LightCycler PCR (black circles in the upper panel) and WST-1 assay (open triangles in the upper panel). The relative value (%) calculated at each point, when the level in non-treated cells was assigned as 100%, is presented here. Data are expressed as the means±standard deviation of triplicate assays. Western blot analysis (lower panels) was performed as described in Fig. 1B. […]
# We next examined whether N-89 and N-251 worked in an HCV production system using HCV-JFH-1 strain (genotype 2a). […] To clarify whether anti-HCV activity depends on the difference of genotype or assay model, we evaluated the activities of N-89 and N-251 using RSc-JRN/35B [Ikeda et al., submitted] cells harboring a subgenomic HCV-JFH-1 replicon as an additional assay.
# [2] = target: T1, renilla luciferase (RL) activity (Renilla reniformis, UniProt P27652); assay: Direct effect on RL activity in cell lysate; format: biochemical
# T1 construct: expressed in transfected cells; host or cells: OR6 (HuH-7-derived) and ORL8 (Li23-derived) cells harbouring genome-length HCV-RNA that encodes RL; cell lysate
# Text: The genome-length HCV-RNA used in the assay systems described above contains three non-natural elements: RL, neomycin phosphotransferase, and an internal ribosomal entry site of encephalomyocarditis virus. To exclude the possibility that the anti-HCV activity of N-89 or N-251 was due to the inhibition of these three exogenous elements, we examined the anti-HCV activities of N-89 and N-251 using the authentic 9.6 kb HCV-RNA-replicating HCV-O/RLGE cells, which were developed by the introduction of in vitro synthesized HCV-O/RLGE RNA (Fig. 2A) into OR6c cured cells.
# Supplementary file pone.0072519.s002.tif: Figure S2 No inhibition of RL activity by N-89 or N-251. […] N-89 or N-251 was added to the OR6 cell lysate, and then an RL assay was performed. […] N-89 or N-251 was added to the ORL8 cell lysate, and then an RL assay was performed. (TIF) Click here for additional data file.
# [3] = system: genome-length HCV-RNA (KAH5 strain of genotype 1b) replication in Li23-derived KAH5RL cells; assay: KAH5RL RL assay; format: cell-based; details: Hepatitis C virus, Li23, HCV strain KAH5, 72 hrs
# Experimental: RSc and D7 cells were derived from the cell lines HuH-7 and Li23, respectively, were cultured as described previously, [29]. HuH-7-derived OR6 [13], AH1R [30], and 1B-4R [Ikeda et al., submitted] cells harboring genome-length HCV-RNA and HuH-7-derived polyclonal sOR [31], and RSc-JRN/35B [Ikeda et al., submitted] cells harboring an HCV subgenomic replicon were cultured with medium in the presence of G418 (0.3 mg/ml; Geneticin, Invitrogen, Carlsbad, CA) as described previously. Li23-derived ORL8 [20], ORL11 [20], 1B-4RL [Ikeda et al., submitted], and KAH5RL [Ikeda et al., submitted] cells harboring genome-length HCV-RNA were maintained with medium in the presence of G418 (0.3 mg/ml) as described previously. Li23-derived polyclonal sORL8 and sORL11 cells harboring an HCV replicon, which were established by the transfection of ORN/3-5B/QR,KE,SR RNA into the cured OL8 and OL11 cells, respectively, were also cultured with medium in the presence of G418 (0.3 mg/ml) as described previously. Cured cells, from which the HCV-RNA had been eliminated by IFN treatment, were also maintained with medium in the absence of G418 as described previously. […] Therefore, when HCV-RNA is excluded from the cells or when its level is decreased, the cells are killed in the presence of G418. […]
# The SI value of each reagent was determined by dividing the CC50 value by the EC50 value.
# [4] = system: mice; design: method as in PMID 11428929, PMID 17273878, PMID 12723958; details: cited from earlier work
# [5] = system: Plasmodium berghei; design: method as in PMID 11428929, PMID 17273878, PMID 12723958; details: cited from earlier work
# [6] = reagent added along with substrate to OR6 cell lysate
# [7] = reagent added along with substrate to ORL8 cell lysate
# T1 sequence (P27652 whole entry): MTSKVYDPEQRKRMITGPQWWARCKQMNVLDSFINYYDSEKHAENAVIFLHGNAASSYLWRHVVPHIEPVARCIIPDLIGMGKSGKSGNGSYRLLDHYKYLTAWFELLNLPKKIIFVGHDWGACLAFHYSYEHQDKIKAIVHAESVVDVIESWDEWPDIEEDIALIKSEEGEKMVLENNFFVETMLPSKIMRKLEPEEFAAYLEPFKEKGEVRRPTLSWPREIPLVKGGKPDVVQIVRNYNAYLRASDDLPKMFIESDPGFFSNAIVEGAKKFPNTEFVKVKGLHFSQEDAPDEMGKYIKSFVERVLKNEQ
Structure (SMILES),anti-HCV activity for the HCV-JFH-1 strain [1],"direct effect on RL activity [2, 6]","direct effect on RL activity [2, 7]",EC50 [3],50% lethal dose [4],antimalarial activity in vivo [5]
"OCCCCCCC1COOC2(CCCCCCCCCCC2)OOC1 [N-251, 6-(1,2,6,7-tetraoxaspiro[7.11]nonadec-4-yl)hexan-1-ol]",did not show anti-HCV activity,No suppressive effects,No suppressive effects,290 nM,,
"C1CCCCCC2(CCCCC1)OOCCCOO2 [N-89, 1,2,6,7-Tetraoxaspiro[7.11]nonadecane]",did not show anti-HCV activity,No suppressive effects,No suppressive effects,190 nM,> 2000 mg/kg,potent antimalarial activity
